# Entries after “also recorded” stand apart in the source; their conditions may differ.
# Legend:
# solubility = format: physicochemical
# [1] = radical scavenging ability measurement (DPPH), antioxidative activity in a hydrophilic solvent; format: biochemical; settings: samples 0.1, 1 and 10 μM, 20 minutes at room temperature, FIG. 1
# Experimental: The antioxidative activity in a hydrophilic solvent was measured for hesperidin (HE) and the isolated 8-hydroxyhesperetin (8OH-HE). It should be noted that antioxidative activity was measured in accordance with the radical scavenging ability measurement method described in Yamaguchi, et al., Biosci. Biotechnol. Biochem., 62, 1201-1204, 1998. More specifically, an 8OH-HE sample solution and HE sample solution were first prepared having concentrations of 0.1 μM, 1 μM and 10 μM by dissolving 8OH-HE or HE in ethanol. 200 μL of each sample solution was then mixed into 800 μL of 0.1 M Tris-HCl buffer (pH 7.4). 1 ml of 500 μM DPPH (1,1-diphenyl-2-picrylhydrazyl) in ethanol was added to each mixture to prepare reaction solutions. After adequately mixing the reaction solutions, they were allowed to react for 20 minutes in a dark location at room temperature. Next, 20 μL of each reaction solution was injected into an analytical HPLC system (LC-10A) using a microsyringe to analyze the DPPH concentration. The DPPH concentration was calculated from peak area of DPPH. […] Using 200 μL of a solution of ethanol only instead of the sample solutions for the control, the peak area of DPPH was similarly measured for the control by HPLC analysis. The radical scavenging activity (%) of 8OH-HE and HE were then determined according to the calculation formula indicated in Formula 1. […]
# [2] = lipid peroxidation of methyl linoleate by HPLC, antioxidative activity in a hydrophobic solvent; format: biochemical; settings: 100 μM sample solutions, 40° C. for 18 hours, FIG. 2, listed as 8OH-HE
# Experimental: The antioxidative activity in a hydrophobic solvent was measured for hesperidin (HE), isolated 8-hydroxyhesperetin (8OH-HE) and α-tocopherol (Toc), a compound that is known to have a high level of antioxidative activity. Incidentally, antioxidative activity was measured by HPLC analysis using methyl linoleate as described in Terao J., et al., Lipids, 21(4), 255-260, 1986.
# More specifically, an 8OH-HE sample solution, HE sample solution and Toc sample solution having concentrations of 100 μM were first prepared by dissolving 8OH-HE, HE and Toc in ethanol. 89 mg (100 μL) aliquots of methyl linoleate were each weighed into three small test tubes having an inner diameter of 14 mm. 100 μL of each sample solution was added to the three test tubes and mixed well to prepare mixtures.
# Next, each of the mixtures was dried by completely removing the solvent by placing each test tube in a vacuum desiccator in which pressure was reduced using a vacuum pump. […] The sum of the HPLC peak areas of 13-hydroperoxide and 9-hydroperoxide formed by the methyl linoleate was then determined.
# Moreover, HPLC analysis was also performed using 100 μL of a solution of ethanol only instead of the sample solutions for the control. The sum of the HPLC peak areas of the control was also determined. The degree of lipid peroxidation (%) of each sample was then determined from Formula 2. […]
# [3] = antioxidative action (general statement, no test named); settings: general statement in the description
structure (smiles),measurement,setting,value
"COc1ccc([C@@H]2CC(=O)c3c(O)cc(O[C@@H]4O[C@H](CO[C@@H]5O[C@@H](C)[C@H](O)[C@@H](O)[C@H]5O)[C@@H](O)[C@H](O)[C@H]4O)cc3O2)cc1O [hesperidin, reference compound]",saturation concentration (solubility limit) in the medium,"solubility; culture medium, varies with the amount of organic solvent added",≤ 0.3 % by weight
"COc1ccc(C2CC(=O)c3c(O)cc(O)c(O)c3O2)cc1O (stereo not shown) [8-hydroxyhesperetin, 3′,5,7,8-tetrahydroxy-4′-methoxyflavonone]",antioxidative activity (radical scavenging activity),[1],much higher level of antioxidative activity than HE
same,antioxidative activity (degree of lipid peroxidation),[2],much higher level of antioxidative activity than HE; also recorded: antioxidative activity that was comparable to α-tocopherol
same,"solubility in methanol, ethanol and dimethyl sulfoxide (DMSO)","solubility; methanol, ethanol, DMSO",easily dissolves
same,solubility in water,solubility; water,somewhat soluble
same,antioxidative action,[3],extremely high level of antioxidative action comparable to that of α-tocopherol
same,antioxidative action,[3]; listed as 8-Hydroxyhesperetin,remarkably high antioxidative action as compared with hesperidin and hesperetin

# Source: patent US7582675B2, “Flavonoid compound and process for producing the same” (Pokka Corporation, priority 2001, dated 2009)
